Source: ChEMBL document CHEMBL4346729, “The discovery of novel 3-aryl-indazole derivatives as peripherally restricted pan-Trk inhibitors for the treatment of pain” (Bioorg Med Chem Lett, 2019)
In brackets after ≈: the same amount, converted by molar mass.

Tests used:
[1] = target: Serine/threonine-protein kinase 3 (Homo sapiens) (UniProt Q13188); assay: Inhibition of recombinant human full length MST2 (M1 to F491) expressed in Sf9 insect cells at 20 nM using phosphatidylserine as substrate incubated for 60 mins in presence of [33P]-ATP by scintillation counting method
[2] = target: Mitogen-activated protein kinase 14 (Homo sapiens) (UniProt Q16539); assay: Inhibition of recombinant human full length p38-alpha (M1 to S360) expressed in Escherichia coli at 20 nM using phosphatidylserine as substrate incubated for 60 mins in presence of [33P]-ATP by scintillation counting method
[3] = target: MAP kinase-activated protein kinase 5 (Homo sapiens) (UniProt Q8IW41); assay: Inhibition of recombinant human full length MAPKAPK5 (M1 to Q471) expressed in Escherichia coli at 20 nM using phosphatidylserine as substrate incubated for 60 mins in presence of [33P]-ATP by scintillation counting method
[4] = target: Tyrosine-protein kinase Lck (Homo sapiens) (UniProt P06239); assay: Inhibition of recombinant human full length N-terminal GST/His6-tagged LCK (M1 to P509) expressed in Sf9 insect cells at 20 nM using phosphatidylserine as substrate incubated for 60 mins in presence of [33P]-ATP by scintillation counting method
[5] = target: Serine/threonine-protein kinase pim-2 (Homo sapiens) (UniProt Q9P1W9); assay: Inhibition of recombinant human full length N-terminal GST/His6-tagged PIM2 (M1 to P311) expressed in baculovirus infected Sf9 insect cells at 20 nM using phosphatidylserine as substrate incubated for 60 mins in presence of [33P]-ATP by scintillation counting method
[6] = Apparent permeability from apical to basolateral side in MDCK cells at 50 umol/L at pH 7.4 incubated for 30 mins by LC-MS/MS analysis; type: ADME, cell-based, Canis lupus familiaris; settings: dog
[7] = Unbound drug level in brain of CFA induced Sprague-Dawley rat at 0.8 mg/kg, po after 1 hr; type: ADME, organism-based; settings: in vivo, BLD = below limit of detection
[8] = target: Tyrosine-protein kinase JAK1 (Homo sapiens) (UniProt P23458); assay: Inhibition of recombinant human N-terminal GST/His6-tagged JAK1 wt (L583 to K1154) expressed in Sf9 insect cells at 20 nM using phosphatidylserine as substrate incubated for 60 mins in presence of [33P]-ATP by scintillation counting method
[9] = Toxicity in CFA induced Sprague-Dawley rat assessed as increase in weight gain at 100 mg/kg, po and measured up to 3 days; type: organism-based; settings: in vivo, 72 h
[10] = target: Vascular endothelial growth factor receptor 2 (Homo sapiens) (UniProt P35968); assay: Inhibition of recombinant human N-terminal GST-tagged VEGF-R2 C-terminal (G443 to G796) expressed in Sf9 insect cells at 20 nM using phosphatidylserine as substrate incubated for 60 mins in presence of [33P]-ATP by scintillation counting method
[11] = target: Casein kinase I isoform delta (Homo sapiens) (UniProt P48730); assay: Inhibition of CK1-delta (unknown origin) at 20 nM using phosphatidylserine as substrate incubated for 60 mins in presence of [33P]-ATP by scintillation counting method
[12] = target: Rho-associated protein kinase 2 (Homo sapiens) (UniProt O75116); assay: Inhibition of recombinant human N-terminal GST/His6-tagged ROCK2 internal (P6 to S553) expressed in baculovirus infected Sf9 insect cells at 20 nM using phosphatidylserine as substrate incubated for 60 mins in presence of [33P]-ATP by scintillation counting method
[13] = target: Tyrosine-protein kinase BTK (Homo sapiens) (UniProt Q06187); assay: Inhibition of recombinant human full length N-terminal GST/His6-tagged BTK (M1 to S659) expressed in Sf9 insect cells at 20 nM using phosphatidylserine as substrate incubated for 60 mins in presence of [33P]-ATP by scintillation counting method
[14] = Toxicity in CFA induced Sprague-Dawley rat assessed as increase in weight gain at 20 mg/kg, po and measured up to 3 days; type: organism-based; settings: in vivo, 72 h
[15] = target: 5'-AMP-activated protein kinase catalytic subunit alpha-1 (Homo sapiens) (UniProt Q13131); assay: Inhibition of recombinant human full length N-terminal GST/His6-tagged AMPKalpha1 (M1 to Q550) expressed in Sf9 insect cells at 20 nM using phosphatidylserine as substrate incubated for 60 mins in presence of [33P]-ATP by scintillation counting method
[16] = Solubility of test compound; type: physicochemical
[17] = target: Inhibitor of nuclear factor kappa-B kinase subunit beta (Homo sapiens) (UniProt O14920); assay: Inhibition of recombinant human full length N-terminal GST/His6-tagged IKK-beta (M1 to S756) expressed in Sf9 insect cells at 20 nM using phosphatidylserine as substrate incubated for 60 mins in presence of [33P]-ATP by scintillation counting method
[18] = target: Aurora kinase A (Homo sapiens) (UniProt O14965); assay: Inhibition of recombinant human full length N-terminal GST/His6-tagged Aurora-A (M1 to S403) expressed in Sf9 insect cells at 20 nM using phosphatidylserine as substrate incubated for 60 mins in presence of [33P]-ATP by scintillation counting method
[19] = Half life in Sprague-Dawley rat at 1 mg/kg, iv; type: ADME, organism-based; settings: in vivo
[20] = target: Dual specificity tyrosine-phosphorylation-regulated kinase 1A (Homo sapiens) (UniProt Q13627); assay: Inhibition of DYRK1A (unknown origin) at 20 nM using phosphatidylserine as substrate incubated for 60 mins in presence of [33P]-ATP by scintillation counting method
[21] = Clearance in Sprague-Dawley rat at 1 mg/kg, iv; type: ADME, organism-based; settings: in vivo
[22] = target: Calcium/calmodulin-dependent protein kinase type II subunit delta (Homo sapiens) (UniProt Q13557); assay: Inhibition of CAMK2D (unknown origin) at 20 nM using calmodulin as substrate incubated for 60 mins in presence of [33P]-ATP by scintillation counting method
Rattus norvegicus = assay: Unbound drug level in plasma of CFA induced Sprague-Dawley rat at 100 mg/kg, po after 1 hr; type: ADME, organism-based; settings: in vivo
[23] = target: Tyrosine-protein kinase Lyn (Homo sapiens) (UniProt P07948); assay: Inhibition of recombinant human full length N-terminal GST/His6-tagged LYN (M1 to P512) expressed in Sf9 insect cells at 20 nM using phosphatidylserine as substrate incubated for 60 mins in presence of [33P]-ATP by scintillation counting method
[24] = target: Serine/threonine-protein kinase MARK1 (Homo sapiens) (UniProt Q9P0L2); assay: Inhibition of recombinant human full length N-terminal GST/His6-tagged MARK1 (M1 to L780) expressed in Sf9 insect cells at 20 nM using phosphatidylserine as substrate incubated for 60 mins in presence of [33P]-ATP by scintillation counting method
[25] = target: Glycogen synthase kinase-3 beta (Homo sapiens) (UniProt P49841); assay: Inhibition of recombinant human full length N-terminal GST/His6-tagged GSK3-beta (M1 to T420) expressed in Sf9 insect cells at 20 nM using phosphatidylserine as substrate incubated for 60 mins in presence of [33P]-ATP by scintillation counting method

Chain of Tyrosine-protein kinase Lyn (Homo sapiens) (P07948 2-512 limits assumed): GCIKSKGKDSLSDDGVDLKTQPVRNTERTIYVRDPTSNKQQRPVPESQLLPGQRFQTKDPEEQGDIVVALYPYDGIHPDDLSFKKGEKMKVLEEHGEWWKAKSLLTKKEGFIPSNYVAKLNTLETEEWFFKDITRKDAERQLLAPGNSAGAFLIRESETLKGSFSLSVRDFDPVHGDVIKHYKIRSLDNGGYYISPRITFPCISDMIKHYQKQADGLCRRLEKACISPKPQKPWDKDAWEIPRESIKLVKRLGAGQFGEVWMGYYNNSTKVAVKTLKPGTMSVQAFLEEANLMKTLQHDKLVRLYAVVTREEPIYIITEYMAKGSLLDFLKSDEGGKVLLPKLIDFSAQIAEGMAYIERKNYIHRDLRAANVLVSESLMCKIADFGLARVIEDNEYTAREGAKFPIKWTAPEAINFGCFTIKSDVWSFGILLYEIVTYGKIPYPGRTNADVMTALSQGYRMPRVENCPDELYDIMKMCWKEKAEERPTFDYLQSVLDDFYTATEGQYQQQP
Chain of Mitogen-activated protein kinase 14 (Homo sapiens) (Q16539 whole entry): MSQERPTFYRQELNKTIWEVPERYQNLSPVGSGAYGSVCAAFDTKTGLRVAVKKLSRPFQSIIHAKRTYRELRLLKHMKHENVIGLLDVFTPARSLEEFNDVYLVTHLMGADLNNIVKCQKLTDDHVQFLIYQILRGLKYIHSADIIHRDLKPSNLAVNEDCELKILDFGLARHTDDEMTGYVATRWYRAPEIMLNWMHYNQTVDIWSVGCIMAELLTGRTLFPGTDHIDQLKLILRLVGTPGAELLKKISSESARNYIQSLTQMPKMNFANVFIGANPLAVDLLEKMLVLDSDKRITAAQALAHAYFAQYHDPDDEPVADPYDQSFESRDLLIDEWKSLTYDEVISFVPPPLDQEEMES
Chain of Vascular endothelial growth factor receptor 2 (Homo sapiens) (P35968 whole entry, canonical isoform): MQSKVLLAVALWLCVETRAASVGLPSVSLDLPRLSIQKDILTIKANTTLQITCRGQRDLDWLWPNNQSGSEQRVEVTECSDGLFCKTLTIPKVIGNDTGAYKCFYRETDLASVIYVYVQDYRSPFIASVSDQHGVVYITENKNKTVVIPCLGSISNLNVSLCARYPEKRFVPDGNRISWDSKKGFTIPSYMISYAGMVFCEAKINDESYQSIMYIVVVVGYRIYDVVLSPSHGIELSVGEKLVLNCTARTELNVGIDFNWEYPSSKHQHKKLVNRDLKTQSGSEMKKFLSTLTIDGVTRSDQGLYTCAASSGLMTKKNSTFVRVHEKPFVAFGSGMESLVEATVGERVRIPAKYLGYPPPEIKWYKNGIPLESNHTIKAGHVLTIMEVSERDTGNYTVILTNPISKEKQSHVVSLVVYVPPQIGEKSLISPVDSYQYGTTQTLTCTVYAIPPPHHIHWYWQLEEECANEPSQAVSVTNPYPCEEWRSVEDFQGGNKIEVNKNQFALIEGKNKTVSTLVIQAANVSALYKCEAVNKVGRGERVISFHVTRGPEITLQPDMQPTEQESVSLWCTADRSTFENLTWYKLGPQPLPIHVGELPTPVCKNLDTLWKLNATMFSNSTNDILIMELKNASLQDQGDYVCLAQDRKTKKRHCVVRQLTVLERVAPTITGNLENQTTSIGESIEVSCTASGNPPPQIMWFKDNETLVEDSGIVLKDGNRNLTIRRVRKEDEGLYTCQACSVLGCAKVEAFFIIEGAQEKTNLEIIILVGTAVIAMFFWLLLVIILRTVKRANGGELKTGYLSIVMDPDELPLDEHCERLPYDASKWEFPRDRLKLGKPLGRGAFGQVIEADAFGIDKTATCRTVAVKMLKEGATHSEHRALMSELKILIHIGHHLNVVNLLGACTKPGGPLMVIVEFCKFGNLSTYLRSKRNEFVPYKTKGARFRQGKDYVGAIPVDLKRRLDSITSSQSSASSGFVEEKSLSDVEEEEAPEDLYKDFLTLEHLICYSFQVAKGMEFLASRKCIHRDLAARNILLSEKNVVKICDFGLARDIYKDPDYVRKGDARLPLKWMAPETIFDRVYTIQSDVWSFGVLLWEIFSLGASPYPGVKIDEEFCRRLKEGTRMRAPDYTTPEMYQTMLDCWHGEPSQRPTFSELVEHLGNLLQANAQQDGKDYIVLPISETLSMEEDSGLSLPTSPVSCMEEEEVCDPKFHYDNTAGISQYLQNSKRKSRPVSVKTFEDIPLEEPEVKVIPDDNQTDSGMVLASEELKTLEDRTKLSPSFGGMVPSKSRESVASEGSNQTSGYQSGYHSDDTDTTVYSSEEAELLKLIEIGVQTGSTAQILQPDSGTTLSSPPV
Chain of 5'-AMP-activated protein kinase catalytic subunit alpha-1 (Homo sapiens) (Q13131 whole entry, looked up): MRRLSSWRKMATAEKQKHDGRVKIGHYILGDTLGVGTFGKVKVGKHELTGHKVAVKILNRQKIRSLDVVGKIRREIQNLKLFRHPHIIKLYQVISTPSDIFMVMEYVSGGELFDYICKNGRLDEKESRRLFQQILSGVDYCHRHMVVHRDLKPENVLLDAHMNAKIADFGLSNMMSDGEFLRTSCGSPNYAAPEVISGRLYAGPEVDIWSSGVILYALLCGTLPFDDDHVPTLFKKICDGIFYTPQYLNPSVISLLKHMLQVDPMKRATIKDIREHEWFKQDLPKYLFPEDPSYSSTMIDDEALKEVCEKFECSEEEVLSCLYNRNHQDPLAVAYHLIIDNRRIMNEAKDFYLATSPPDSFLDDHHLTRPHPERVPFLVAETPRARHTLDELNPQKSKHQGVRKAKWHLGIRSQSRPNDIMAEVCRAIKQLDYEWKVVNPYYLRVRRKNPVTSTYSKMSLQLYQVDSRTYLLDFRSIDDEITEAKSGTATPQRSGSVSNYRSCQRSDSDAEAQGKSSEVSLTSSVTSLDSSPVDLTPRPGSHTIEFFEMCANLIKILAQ
Chain of Aurora kinase A (Homo sapiens) (O14965 whole entry): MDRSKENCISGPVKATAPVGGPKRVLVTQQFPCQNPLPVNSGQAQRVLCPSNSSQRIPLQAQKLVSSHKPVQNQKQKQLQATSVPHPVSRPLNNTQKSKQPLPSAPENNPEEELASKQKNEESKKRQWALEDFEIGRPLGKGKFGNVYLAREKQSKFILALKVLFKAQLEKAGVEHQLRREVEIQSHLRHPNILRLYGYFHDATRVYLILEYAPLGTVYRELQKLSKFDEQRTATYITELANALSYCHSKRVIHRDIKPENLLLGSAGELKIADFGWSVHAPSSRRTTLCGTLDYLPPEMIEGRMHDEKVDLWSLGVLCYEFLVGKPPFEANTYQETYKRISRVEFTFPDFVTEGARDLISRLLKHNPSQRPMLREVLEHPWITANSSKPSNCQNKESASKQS
Chain of Serine/threonine-protein kinase pim-2 (Homo sapiens) (Q9P1W9 whole entry, looked up): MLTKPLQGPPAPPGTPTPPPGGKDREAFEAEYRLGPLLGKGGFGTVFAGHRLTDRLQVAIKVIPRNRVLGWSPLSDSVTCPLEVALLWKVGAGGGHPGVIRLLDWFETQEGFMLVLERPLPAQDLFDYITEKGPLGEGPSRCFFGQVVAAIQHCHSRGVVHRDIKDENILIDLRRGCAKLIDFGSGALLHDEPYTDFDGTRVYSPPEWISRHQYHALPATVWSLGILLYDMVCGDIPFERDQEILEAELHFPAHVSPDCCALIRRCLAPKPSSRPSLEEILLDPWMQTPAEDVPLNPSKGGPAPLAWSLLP
Chain of Serine/threonine-protein kinase MARK1 (Homo sapiens) (Q9P0L2 whole entry, looked up): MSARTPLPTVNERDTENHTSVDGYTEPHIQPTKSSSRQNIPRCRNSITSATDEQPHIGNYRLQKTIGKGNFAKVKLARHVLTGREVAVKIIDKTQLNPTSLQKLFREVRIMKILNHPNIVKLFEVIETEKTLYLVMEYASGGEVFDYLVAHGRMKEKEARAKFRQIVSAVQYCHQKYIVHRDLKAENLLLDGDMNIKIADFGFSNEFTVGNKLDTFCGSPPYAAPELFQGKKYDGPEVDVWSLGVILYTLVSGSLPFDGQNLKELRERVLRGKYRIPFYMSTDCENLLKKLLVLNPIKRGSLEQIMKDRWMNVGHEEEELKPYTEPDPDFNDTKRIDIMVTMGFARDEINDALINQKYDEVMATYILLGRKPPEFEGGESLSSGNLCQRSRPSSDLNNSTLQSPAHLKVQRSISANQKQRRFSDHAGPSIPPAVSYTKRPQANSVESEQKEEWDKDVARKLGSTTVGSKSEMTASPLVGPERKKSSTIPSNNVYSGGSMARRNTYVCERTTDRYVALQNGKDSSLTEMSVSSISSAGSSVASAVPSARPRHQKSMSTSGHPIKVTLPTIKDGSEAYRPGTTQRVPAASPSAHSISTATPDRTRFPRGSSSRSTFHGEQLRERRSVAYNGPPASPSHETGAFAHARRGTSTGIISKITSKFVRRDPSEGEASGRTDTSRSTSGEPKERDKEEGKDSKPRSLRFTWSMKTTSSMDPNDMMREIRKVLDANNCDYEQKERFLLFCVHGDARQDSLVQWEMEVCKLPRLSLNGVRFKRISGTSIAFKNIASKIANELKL
Chain of MAP kinase-activated protein kinase 5 (Homo sapiens) (Q8IW41 whole entry): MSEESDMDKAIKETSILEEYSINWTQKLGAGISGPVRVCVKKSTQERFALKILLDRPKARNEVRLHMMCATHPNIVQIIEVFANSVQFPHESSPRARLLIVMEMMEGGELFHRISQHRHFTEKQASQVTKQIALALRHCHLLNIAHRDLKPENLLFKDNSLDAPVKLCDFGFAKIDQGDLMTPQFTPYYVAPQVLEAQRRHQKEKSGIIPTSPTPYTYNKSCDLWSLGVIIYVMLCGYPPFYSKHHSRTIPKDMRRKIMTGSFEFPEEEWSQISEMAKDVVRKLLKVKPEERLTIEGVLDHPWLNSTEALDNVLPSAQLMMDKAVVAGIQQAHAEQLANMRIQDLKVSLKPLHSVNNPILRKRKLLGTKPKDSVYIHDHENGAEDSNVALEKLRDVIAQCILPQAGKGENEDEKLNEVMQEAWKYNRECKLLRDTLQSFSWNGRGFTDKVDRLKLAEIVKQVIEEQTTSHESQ

Q: For `Cn1cc(-c2n[nH]c3ccc(NCc4cc(F)ccc4S(C)(=O)=O)cc23)cn1`, which inhibition [1] is on record?
A: 3%

Q: And the inhibition [2]?
A: -8%

Q: And the inhibition [3]?
A: 6%

Q: What about the inhibition [4] of the same compound?
A: -6%

Q: And the inhibition [5]?
A: -1%

Q: And the Papp A→B at 0.5 h, 50 µM [6]?
A: 15.2 ×10⁻⁶ cm/s

Q: What about the “Drug uptake(free)” value [7] of the same compound?
A: Bld

Q: And the inhibition [8]?
A: -5%

Q: And the Activity [9]?
A: Toxic

Q: What about the inhibition [10] of the same compound?
A: 4%

Q: What about the inhibition [11] of the same compound?
A: 5%

Q: What about the inhibition [12] of the same compound?
A: 5%

Q: What about the inhibition [13] of the same compound?
A: -6%

Q: What about the Activity [14] of the same compound?
A: Non-Toxic

Q: And the inhibition [15]?
A: -9%

Q: And the solubility [16]?
A: 141 µM (≈ 56.2 µg/mL)

Q: And the inhibition [17]?
A: -7%

Q: And the inhibition [18]?
A: -7%

Q: And the half-life [19]?
A: 1.46 h

Q: What about the inhibition [20] of the same compound?
A: -7%

Q: And the clearance [21]?
A: 73.3 mL/min/kg

Q: What about the inhibition [22] of the same compound?
A: 0%

Q: What about the “Cp(f)” value (Rattus norvegicus) of the same compound?
A: 266.5 nM

Q: What about the inhibition [23] of the same compound?
A: -1%

Q: And the inhibition [24]?
A: -8%

Q: What about the inhibition [25] of the same compound?
A: 11%
